# Reference: patent US20070219214A1, “Dual NK2/NK3-antagonists, pharmaceutical compositions comprising them, and processes for their preparation” (Solvay pharmaceuticals GmbH, priority 2006, published 2007)
# Where two headings read alike, the source gives them in different places.
# Columns and labels:
# human NK1-receptor [1] = molecular target: T1, human NK1-receptor (Homo sapiens, UniProt P25103); experiment: Functional cellular test, Ca2+ measurements using FLIPR for NK1 activity; format: cell-based; parameters: expressed in transfected cells; host or cells: CHO fibroblast cells
# T1 sequence (P25103 whole entry): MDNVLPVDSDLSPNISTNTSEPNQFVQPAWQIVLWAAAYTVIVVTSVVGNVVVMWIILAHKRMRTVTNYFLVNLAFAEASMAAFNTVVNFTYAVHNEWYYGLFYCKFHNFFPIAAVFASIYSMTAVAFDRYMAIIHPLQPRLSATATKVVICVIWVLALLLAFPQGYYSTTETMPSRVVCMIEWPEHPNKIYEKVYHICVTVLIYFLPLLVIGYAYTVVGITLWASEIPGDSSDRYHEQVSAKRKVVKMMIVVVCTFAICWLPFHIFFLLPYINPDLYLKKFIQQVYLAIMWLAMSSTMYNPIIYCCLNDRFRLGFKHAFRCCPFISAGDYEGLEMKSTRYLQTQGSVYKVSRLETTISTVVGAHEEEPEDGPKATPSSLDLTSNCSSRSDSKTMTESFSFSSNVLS
# Text: The NK receptor is coupled to Gq.
# All steps were done under sterile conditions.
# human NK2-receptor [2] = molecular target: T2, human NK2-receptor (Homo sapiens, UniProt P21452); experiment: Functional cellular test, Ca2+ measurements using FLIPR for NK2 activity;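 also: CHO cells stably expressing the human receptor, loaded with a calcium dye, antagonist inhibition of ligand-evoked intracellular calcium rise read as peak fluorescence change on FLIPR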
# T2 sequence (P21452 1-398): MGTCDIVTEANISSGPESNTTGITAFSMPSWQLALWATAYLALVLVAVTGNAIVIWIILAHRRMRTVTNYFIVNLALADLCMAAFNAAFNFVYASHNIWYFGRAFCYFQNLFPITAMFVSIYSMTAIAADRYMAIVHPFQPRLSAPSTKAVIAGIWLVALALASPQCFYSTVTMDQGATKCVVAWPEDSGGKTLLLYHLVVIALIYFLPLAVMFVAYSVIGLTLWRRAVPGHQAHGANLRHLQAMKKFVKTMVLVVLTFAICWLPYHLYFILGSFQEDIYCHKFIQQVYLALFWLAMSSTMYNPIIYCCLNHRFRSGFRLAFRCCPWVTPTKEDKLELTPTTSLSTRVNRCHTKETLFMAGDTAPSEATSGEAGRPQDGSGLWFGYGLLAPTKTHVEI
# human NK2-receptor [3] = molecular target: T2, human NK2-receptor; experiment: Binding potency of the test substances to NK2-receptors in vitro ([3H]-SR 48968 displacement); parameters: expressed in transfected cells; host or cells: CHO cells (membrane preparation); conditions: human NK2-receptor in CHO cell membranes, [3H]-SR 48968 (saredutant), average of at least three measurements; for Ki: read-out: pKi, binding potency to NK2-receptors (converted)
# How it was run: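 Membranes from CHO cells stably expressing the receptor were incubated with [3H]-saredutant plus test compound, then filtered and counted by liquid scintillation. Nonspecific binding defined with 0.1 μmol/l unlabeled saredutant. IC50 from displacement converted to Ki via Cheng-Prusoff and reported as pKi, averaged over measurements.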
# human NK3 receptor [4] = molecular target: T3, human NK3 receptor (Homo sapiens, UniProt P29371); experiment: Binding potency of the test substances to NK3-receptors in vitro ([3H]-SR 142801 displacement); parameters: expressed in transfected cells; host or cells: CHO cells (membrane preparation); conditions: human NK3-receptor in CHO cell membranes, [3H]-SR 142801 (osanetant), average of at least three measurements; for Ki: read-out: pKi, binding potency to NK3-receptors (converted)
# T3 sequence (P29371 1-465): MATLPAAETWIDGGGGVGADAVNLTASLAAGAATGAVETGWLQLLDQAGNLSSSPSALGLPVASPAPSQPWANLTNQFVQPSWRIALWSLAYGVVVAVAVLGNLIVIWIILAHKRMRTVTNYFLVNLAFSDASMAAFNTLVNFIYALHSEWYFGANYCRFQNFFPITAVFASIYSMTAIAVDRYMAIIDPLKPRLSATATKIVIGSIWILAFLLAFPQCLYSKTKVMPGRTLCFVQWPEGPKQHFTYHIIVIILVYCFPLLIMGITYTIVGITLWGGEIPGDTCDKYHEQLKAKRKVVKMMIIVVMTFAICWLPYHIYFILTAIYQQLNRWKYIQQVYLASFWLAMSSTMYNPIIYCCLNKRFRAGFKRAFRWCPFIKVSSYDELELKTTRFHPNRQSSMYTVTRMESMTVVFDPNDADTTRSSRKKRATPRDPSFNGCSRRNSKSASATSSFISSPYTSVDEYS
# How it was run: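 [3H]-osanetant displacement on membranes from CHO cells stably expressing the human receptor, with bound ligand separated by filtration and counted by scintillation. Nonspecific binding defined with 1 μmol/l unlabeled osanetant. IC50 converted to Ki by Cheng-Prusoff and reported as pKi, averaged over measurements.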
# human NK3 receptor [5] = molecular target: T3, human NK3 receptor; experiment: Functional cellular test, Ca2+ measurements using aequorin for NK3 activity; format: cell-based; parameters: expressed in transfected cells; host or cells: cell line co-expressing mitochondrially targeted apoaequorin (CHO according to b76/b77); conditions: for Kb: read-out: pA2 data for NK3 (converted)
# human NK1-receptor [6] = molecular target: T1, human NK1-receptor; experiment: Binding potency of the test substances to NK1-receptors in vitro ([3H]-Substance P displacement); conditions: human NK1-receptor in CHO cell membranes, average of at least three measurements
# Procedure: 1. Determination of the Binding Potency of the Test Substances to NK1-Receptors in Vitro
# The affinity of test compounds for NK1-receptors can be determined by measuring the ability of the test compound to displace a radiolabeled ligand from its specific binding site. The tests were performed at Solvay Pharmaceuticals, Weesp, The Netherlands.
# Separation of bound radioactivity from free radioactivity was done by filtration through glass fiber filters (Packard GF/B) with several washings with ice-cold buffer solution. Bound radioactivity was measured with a liquid scintillation counter (total binding).
# The inhibition constant (Ki) was calculated according to the Cheng-Prusoff equation, and listed as its negative logarithmic value (pKi). The pKi value describes the potency of a test compound to bind to a receptor.
# NK1-receptor = molecular target: T4, NK1-receptor (Cavia porcellus, UniProt P30547); experiment: NK1-receptor-antagonistic effectiveness in vivo, NKA-induced early hypotension in anaesthetised guinea pigs; conditions: guinea pig, NKA 200 pmol/animal i.v., intravenous administration
# T4 construct: from tissue; host or cells: whole animal (Pirbright-White guinea pigs), in vivo
# T4 sequence (P30547 whole entry): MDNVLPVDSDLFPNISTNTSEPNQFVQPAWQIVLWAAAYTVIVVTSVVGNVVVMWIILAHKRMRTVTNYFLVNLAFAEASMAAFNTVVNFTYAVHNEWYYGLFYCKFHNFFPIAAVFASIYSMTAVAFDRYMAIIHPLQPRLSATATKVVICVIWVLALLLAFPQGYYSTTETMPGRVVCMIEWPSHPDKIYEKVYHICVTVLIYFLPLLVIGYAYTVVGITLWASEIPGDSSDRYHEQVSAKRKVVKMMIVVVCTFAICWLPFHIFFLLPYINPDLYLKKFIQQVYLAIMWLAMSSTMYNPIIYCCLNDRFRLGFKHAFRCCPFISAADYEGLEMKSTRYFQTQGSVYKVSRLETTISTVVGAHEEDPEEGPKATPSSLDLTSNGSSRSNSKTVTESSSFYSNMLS
# Text: (§1) 10. Determination of the NK1- and NK2-Receptor-Antagonistic Effectiveness of the Test Substances In Vivo
# (§2) The NK1- and NK2-antagonistic activities of the test substances were investigated in anaesthetised guinea pigs in each case after intravenous (=i.v.) and oral (=p.o.) administration in vivo. With the present test model it is possible to detect both NK2-antagonistic effects in three different organ systems (respiratory tracts, colon and circulation) and NK1-antagonistic effects (rapid drop in blood pressure) in an animal simultaneously.
# (§3) Pirbright-White guinea pigs of a body weight of 500-700 g were anaesthetised with ketamine/xylazine (67/13 mg/kg subcutaneously, initial dose, further doses administered as required). The animals were provided with an intravenous catheter in order to administer the substance and an intra-arterial catheter to measure the blood pressure. The animals were artificially ventilated via a tracheal cannula and the respiratory pressure was recorded by means of a pressure transducer. A balloon was introduced into the distal colon of the animals for manometric recording of colon motility by means of a pressure transducer. Blood pressure, heart rate, respiratory pressure and colonic pressure were measured continuously for each animal and plotted on a recorder and by means of a digital data-processing system. […] The second phase of delayed hypotension (=phase of maximum hypotension after 2-5 min.) on the other hand is mediated via NK2-receptors, since they can be blocked by specific NK2-receptor antagonists.
# (§4) These ED50 values obtained from cumulative dose effect curves are plotted in Table 13.
# NK2-receptor = molecular target: T5, NK2-receptor (Cavia porcellus, UniProt Q64077); experiment: NK2-receptor-antagonistic effectiveness in vivo, NKA-induced late hypotension, bronchoconstriction and colonic pressure in anaesthetised guinea pigs; conditions: guinea pig, NKA 200 pmol/animal i.v., intravenous administration
# T5 construct: from tissue; host or cells: whole animal (Pirbright-White guinea pigs), in vivo
# T5 sequence (Q64077 1-402): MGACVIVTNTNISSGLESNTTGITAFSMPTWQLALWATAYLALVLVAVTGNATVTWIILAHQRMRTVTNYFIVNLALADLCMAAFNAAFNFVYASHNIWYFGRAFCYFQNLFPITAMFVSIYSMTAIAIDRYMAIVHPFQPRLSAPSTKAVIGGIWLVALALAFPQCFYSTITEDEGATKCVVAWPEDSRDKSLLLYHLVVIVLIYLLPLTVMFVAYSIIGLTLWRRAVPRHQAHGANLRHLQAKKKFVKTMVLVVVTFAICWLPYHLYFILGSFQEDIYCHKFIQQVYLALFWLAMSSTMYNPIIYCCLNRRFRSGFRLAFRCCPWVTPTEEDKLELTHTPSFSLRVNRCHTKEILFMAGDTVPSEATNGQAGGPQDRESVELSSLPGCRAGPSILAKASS
# Text: as §1, §2, §3, §4
# [7] = read-out: pA2 data for NK1 (converted)
# [8] = pKi, binding potency to NK1-receptors
# [9] = read-out: pKi, binding potency to NK1-receptors (converted)
Structure (SMILES),Kb (human NK1-receptor [1]; [7]),Kb (human NK2-receptor [2]),Ki (human NK2-receptor [3]),Ki (human NK3 receptor [4]),Kb (human NK3 receptor [5]),Ki (human NK1-receptor [6]; [9]),further results
"CN(C[C@@H](CCN1CCC(C(=O)N2CCCCC2)(N2CCCCC2)CC1)c1ccc(Cl)c(Cl)c1)C(=O)c1ccccc1 [compound 104, N-{(2S)-2-(3,4-dichlorophenyl)-4-[4′-(piperidin-1-ylcarbonyl)-1,4′-bipiperidin-1′-yl]butyl}-N-methylbenzamide]",20 nM,15.8 nM,2 nM,20 nM,15.8 nM,–,–
"CCCCN(C(=O)CC)C1CCN(CC[C@H](CN(C)C(=O)c2ccccc2)c2ccc(Cl)c(Cl)c2)CC1 [compound 108, N-[(2S)-4-{4-[butyl(propionyl)amino]piperidin-1-yl}-2-(3,4-dichlorophenyl)butyl]-N-methylbenzamide]",–,1 nM,3.98 nM,–,–,–,Ki (human NK1-receptor [6]; [8]): 12.6 nM; Kb (human NK1-receptor [1]): 31.6 nM
CN(C)C(=O)C1(N2CCCCC2)CCN(CC[C@H](CN(C)C(=O)c2ccc(F)c(F)c2F)c2ccc(Cl)c(Cl)c2)CC1 [compound 16],–,–,–,–,–,–,"ED50 iv after 1 min (cumulative), NK1 (early hypotension) (NK1-receptor): >1.462 µmol/kg; ED50 iv after 1 min (cumulative), NK2 (bronchoconstriction) (NK2-receptor): 0.38 µmol/kg; ED50 iv after 1 min (cumulative), NK2 (colonic motility) (NK2-receptor): 0.132 µmol/kg; ED50 iv after 1 min (cumulative), NK2 (late hypotension) (NK2-receptor): 0.34 µmol/kg; pA2 data for NK2 (human NK2-receptor [2]; CHO cells, human NK2, FLIPR Ca2+, agonist NKA 10^-7 M): 8.3; pKi, binding potency to NK2-receptors (human NK2-receptor [3]): 9.0; pKi, binding potency to NK3-receptors (human NK3 receptor [4]): 7.8; pA2 data for NK3 (human NK3 receptor [5]; cell line with human NK3 receptor and apoaequorin, agonist senktide 5x10-8 M): 7.9"
"CN(C[C@@H](CCN1CCC(C(=O)N2CCCC2)(N2CCCC2)CC1)c1ccc(Cl)c(Cl)c1)C(=O)c1cc(C#N)cc2ccccc12 [compound 102, 3-cyano-N-{(2S)-2-(3,4-dichlorophenyl)-4-[4-pyrrolidin-1-yl-4-(pyrrolidin-1-ylcarbonyl)piperidin-1-yl]butyl}-N-methyl-1-naphthamide]",2 nM,39.8 nM,5.01 nM,–,39.8 nM,2 nM,–
CN(C)C(=O)C1(N2CCCC2)CCN(CCC(CN(C)C(=O)c2cc(C#N)cc3ccccc23)c2ccc(Cl)c(Cl)c2)CC1 (stereo not drawn) [compound 98],1.58 nM,0.501 nM,5.01 nM,63.1 nM,–,5.01 nM,–
"CN(C[C@@H](CCN1CCC(C(=O)N2CCCC2)(N2CCCC2)CC1)c1ccc(Cl)c(Cl)c1)C(=O)c1ccccc1 [compound 103, N-{(2S)-2-(3,4-dichlorophenyl)-4-[4-pyrrolidin-1-yl-4-(pyrrolidin-1-ylcarbonyl)piperidin-1-yl]butyl}-N-methylbenzamide]",31.6 nM,2 nM,2 nM,–,50.1 nM,50.1 nM,–
CN(C)C(=O)C1(N2CCCCC2)CCN(CCC(CN(C)C(=O)C2CCCC2)c2ccc(Cl)c(Cl)c2)CC1 (stereo not drawn) [compound 23],1.26 nM,1.26 nM,2 nM,10 nM,12.6 nM,–,–
CN(C)C(=O)C1(N2CCCCC2)CCN(CCC(CN(C)C(=O)c2cc(Cl)ccc2F)c2ccc(Cl)c(Cl)c2)CC1 (stereo not drawn) [compound 10],79.4 nM,3.98 nM,1.26 nM,10 nM,5.01 nM,79.4 nM,–
"CN(C)C(=O)C1(N2CCCC2)CCN(CC[C@H](CN(C)C(=O)c2ccccc2)c2ccc(Cl)c(Cl)c2)CC1 [compound 99, 1-[(3S)-4-[benzoyl(methyl)amino]-3-(3,4-dichlorophenyl)-butyl]-N,N-dimethyl-4-pyrrolidin-1-ylpiperidine-4-carboxamide]",50.1 nM,0.251 nM,0.631 nM,63.1 nM,–,–,–
"CCC(=O)N(CC1CC1)C1CCN(CC[C@H](CN(C)C(=O)c2ccccc2)c2ccc(Cl)c(Cl)c2)CC1 [compound 105, N-[(2S)-4-{4-[(cyclopropylmethyl)(Propionyl)-amino]piperidin-1-yl}-2-(3,4-dichlorophenyl)butyl]-N-methylbenzamide]",31.6 nM,0.0794 nM,2 nM,–,100 nM,25.1 nM,–
CNC(=O)C1(N2CCCCC2)CCN(CCC(CN(C)C(=O)c2cc(C#N)cc3ccccc23)c2ccc(Cl)c(Cl)c2)CC1 (stereo not drawn) [compound 93],7.94 nM,3.98 nM,15.8 nM,–,–,7.94 nM,–
"CCC(=O)N(C1CCCCC1)C1CCN(CC[C@H](CN(C)C(=O)c2ccccc2)c2ccc(Cl)c(Cl)c2)CC1 [compound 116, N-[(2S)-4-{4-[cyclohexyl(propionyl)amino]piperidin-1-yl}-2-(3,4-dichlorophenyl)butyl]-N-methyl-benzamide]",–,1.26 nM,5.01 nM,–,–,–,Ki (human NK1-receptor [6]; [8]): 79.4 nM; Kb (human NK1-receptor [1]): 31.6 nM
